Measurements: patent US20160175401A1, “COMPOITIONS AND METHODS FOR MODULATING THERMOGENESIS USING PTH-RELATED AND EGF-RELATED COMPOUNDS” (DANA-FARBER CANCER INSTITUTE INC., priority 2013, published 2016)

What was measured:
primary white adipocytes = test: Thermogenic gene expression (qRT-PCR) in primary white adipocytes; format: cell-based, mouse; details: for thermogenic effects (thermogenic gene expression): 1 μg/ml, 4 hours, primary white adipocytes (FIG. 8A-8C)
Protocol: Inguinal SV fractions were obtained from 30-35 days-old male mice by the following procedure. Inguinal fat tissue was dissected, washed with PBS, minced and digested for 45 min at 37° C. in PBS containing 10 mM CaCl, 2.4 U/mL dispase II (Roche), and 1.5 U/mL collagenase D (Roche). Digested tissue was filtered through a 100-μm cell strainer and centrifuged at 600 g for 5 min to pellet the SV cells which were then resuspended in SV culture medium (DMEM/F12 [1:1; Invitrogen] plus glutamax, pen/strep, and 10% FBS), filtered through a 40-μm cell strainer, centrifugation as above, resuspended in SV culture medium and plated. SV cells were grown to confluency for adipocyte differentiation which was induced by the adipogenic cocktail containing 1 μM dexamethasone, 5 μg/mL insulin, […] isobutylmethylxanthine (DMI), and 1 μM rosiglitazone in SV culture medium. 2 days after induction, cells were maintained in SV culture medium containing 5 μg/mL insulin and 1 μM rosiglitazone. Starting at day 6, cells were maintained in SV culture medium only and treated with various molecules for […] and harvested at day 8.
LLC cells were maintained in DMEM (Invitrogen) with 10% FBS and pen/strep. For conditioned media collection, cells were plated at ⅓ confluency. The following day, medium is changed to FreeStyle expression medium (Invitrogen) which was collected 24 hours later. For concentration of expression medium, LLC conditioned media was filtered using a 3 kilodalton (Kd) cut-off filter (Millipore). Adipocytes were maintained in SV culture media (DMEM/F12 [1:1; Invitrogen] plus glutamax, pen/strep, and 10% FBS) and conditioned media treatment experiments were performed 7 days post-differentiation. When adipocytes were treated with conditioned media for 24 hours, the treatment media were composed of 50% SV culturing medium and 50% LLC conditioned media. When conditioned medium was filtered and concentrated, adipocytes were exposed to 90% SV culturing medium and 10% concentrated LLC conditioned media.
RNA was extracted from cultured cells or frozen tissue samples using TRIzol (Invitrogen), purified with Qiagen RNAeasy minicolums and reverse transcribed using High Capacity cDNA Reverse Transcription kit (Applied Biosystems). Resulting cDNA was analyzed by RT-qPCR. Briefly, 25 ng of cDNA and […] of each primer were mixed with SYBR® GreenER™ PCR Master Mix (Invitrogen). Reactions were performed in 384-well format using an ABI PRISM® 7900HT instrument (Applied Biosystems). Relative mRNA levels were calculated using the comparative CT method normalized to cyclophilin.
Inguinal stroma-vascular fractions were obtained from 30-35-day-old male mice using the following procedure: Inguinal fat tissue was dissected, washed with PBS, minced and digested for 45 min at 37° C. in PBS containing 10 mM CaCl2, 2.4 Uml^−1 dispase 11 (Roche) and 1.5 U ml^−1 collagenaseD (Roche). Digested tissue was filtered through a 100-μm cell strainer and centrifuged at 600 g for 5 min to pellet the stroma-vascular cells. The pellets were then resuspended in adipocyte culture medium (DMEM/F2 (1:1, Invitrogen) plus GlutaMAX, penicillin and streptomycin, and 10% FBS), filtered through a 40-μm cell strainer, centrifuged as above, resuspended in adipocyte culture medium and plated. The stroma-vascular cells were grown to confluence for adipocyte differentiation, which was induced by an adipogenic cocktail containing 1 μM dexamethasone, 5 μg ml^−1 insulin, […] isobutylmethylxanthine (DMI) and 1 μM rosiglitazone in adipocyte culture medium. Two days after induction, cells were maintained in adipocyte culture medium containing 5 μg ml^−1 insulin and 1 μM rosiglitazone. Starting on day 6, cells were maintained in adipocyte culture medium only and treated with various molecules for 2-24 h and harvested on day 8.
LLC cells were maintained in DMEM (Invitrogen) with 10% FBS, and penicillin and streptomycin. For conditioned medium collection, cells were plated at a 1:3 confluence.

UCP1 = UCP1 protein levels by western blotting in primary adipocytes; format: cell-based, mouse
Protocol: Cells were homogenized in a lysis buffer containing 50 mM Tris (pH 7.4), 500 mM NaCl, 1% NP40, 20% glycerol, 5 mM EDTA and 1 mM PMSF, supplemented with protease and phosphatase inhibitor cocktails (Roche). The homogenates were centrifuges at 13,000 rpm for 10 min and the supernatants were used as whole cell lysates. Protein concentration was determined by Bio-Rad Bradford assay and 50 μg of proteins were used in each SDS-PAGE run. PVDF membrane was blotted with UCP1 antibody (Abeam) in TBS containing 0.05% Tween and 5% BSA. For secondary antibody incubation, TBS-T containing 5% milk was used. ECL western blotting substrates from Pierce were used for visualization of the results.
Cells were homogenized in a lysis buffer containing 50 mMTris (pH 7.4), 500 mM NaCl, 1% NP40, 20% glycerol, 5 mM EDTA and 1 mM phenylmethylsulphonyl fluoride (PMSF) supplemented with protease and phosphatase inhibitor cocktails (Roche). The homogenates were centrifuged at 13,000 r.p.m. for 10 min, and the supernatants were used as whole-cell lysates. Protein concentration was determined by Bio-Rad protein assay, and […] protein lysate was separated in each SDS-PAGE lane. The separated proteins were transferred to a polyvinylidene difluoride (PVDF)membrane, which was blotted with antibodies in TBS containing 0.05% Tween (TBS-T) and 5% BSA. For secondary antibody incubation. TBS-T containing 5% milk was used. Enhanced chemiluminescence (ECL) western blotting substrates (Pierce) were used for visualization of the results.

Substance: PTH (1-34): Synthetic peptide rat PTH(1-34) (Ala32-Phe65; Catalog No. H-5460), purchased from Bachem
- thermogenic gene expression (primary white adipocytes; 100 ng ml^−1 peptide, 2 h, primary white adipocytes (FIG. 21B)): stimulated thermogenic gene expression
- thermogenic effects (thermogenic gene expression) (primary white adipocytes): thermogenic effects
- thermogenic effects (thermogenic gene expression) (primary white adipocytes; listed as PTH): powerful inducers of thermogenic gene expression
- UCP1 protein levels (UCP1; 100 nM NE, 100 ng ml^−1 PTHrP or PTH, 24 h, primary white and brown adipocytes (FIG. 23A-23B)): comparably increased UCP1 protein levels
- UCP1 protein levels (UCP1; 24 hour treatment, norepinephrine 100 nM, peptides 100 ng/mL, western blotting (FIG. 8D)): significantly increased
